Data published in patent US10633379B2, “Bromodomain inhibitors” (AbbVie Inc., priority 2016, dated 2020).

Experiments:
[1] = Xenograft tumor growth inhibition assay, SKM-1 (AML); type: in vivo, Female SCID Beige mice; conditions: female, SCID Beige, in vivo, mouse SKM-1 xenograft, oral, read-out: AUC, mouse efficacy, AML (SKM-1)
[2] = test system: SKM-1_FP1 xenograft tumors; assay: as above; type: in vivo, Female SCID Beige mice; conditions: mouse SKM-1 xenograft, oral
BRD4 (BDII_E352-M457) = BRD4 (BDII_E352-M457) (Homo sapiens (Human), UniProt O60885); assay: TR-FRET bromodomain binding assay, BRD4 BDII; conditions: mean Ki, calculated from IC50, probe Kd and probe concentration
Summary of the method: (§1)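 Probe displacement measured by TR-FRET after 1 h at room temperature, in 20 mM sodium phosphate pH 6.0 and 2% DMSO. BDI used 12 nM protein with 100 nM probe, BDII 4 nM with 30 nM probe, each with 1 nM europium antibody. Ki derived from fitted IC50, probe Kd and probe level.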

[3] = Fourteen day rat toxicology study, maximum tolerated exposure; conditions: for AUC at 14 day: po
Description: Compounds were dosed orally once daily, in Sprague-Dawley rats.

BRD4 (BDI_K57-E168) = BRD4 (BDI_K57-E168) (Homo sapiens (Human), UniProt O60885); assay: TR-FRET bromodomain binding assay, BRD4 BDI; conditions: mean Ki, calculated from IC50, probe Kd and probe concentration
Summary of the method: as §1

[4] = test system: LNCaP-FGC xenograft tumors; assay: Xenograft tumor growth inhibition assay, LNCaP (prostate); type: in vivo, Male NSG mice; conditions: mouse LNCaP xenograft, oral
Description: (§2) The effect of compound of Example 32, 35 and Compound X to inhibit the growth of SKM-1_FP1 and LNCaP-FGC xenograft tumors was evaluated. Female SCID Beige mice (Charles River) were utilized for the SKM-1_FP1 flank xenograft model. Male NSG mice (JAX Labs) were used for the LNCaP-FGC study. Cells were suspended in PBS, mixed with Matrigel (phenol red free, Becton Dickinson Biosciences Discovery Labware) in a ratio of 1:4 (V/V) and inoculated subcutaneously into the flank (five million cells per site) of the mice. Inoculated mice were randomized into groups and treatment was initiated when mean tumor volume was 0.2-0.25 cm^3. The compounds were administered orally in (volume %): 1.5% DMSO, 30% PEG 400, and 68.5% Phosol 53 MCT. Tumor growth in the flank was assessed by measuring tumor size with calipers and calculating volume using the formula (L×W^2/2). Study groups were terminated prior to tumor volume reaching 3 cm^3. Inhibition of tumor growth was assessed at the time the vehicle-treated group was terminated by calculating the ratio of the mean volume of the test drug group to the mean volume of the untreated (control) group (T/C) and calculating percent tumor growth inhibition (% TGI).

[5] = as above; type: in vivo, Male NSG mice; conditions: male, NSG, in vivo, mouse LNCaP xenograft, oral, read-out: AUC, mouse efficacy, Prostate (LNCaP)
Description: as §2

[6] = Sprague-Dawley, rat, in vivo, 14 day
[7] = Sprague-Dawley, rat, in vivo, 30 mg/kg

Ki (BRD4 (BDII_E352-M457)) [nM] | Ki (BRD4 (BDI_K57-E168)) [nM] | Compound | further results
– | – | CCNC(=O)c1cc2c(-c3cc(C(C)(C)O)ccc3Oc3c(C)cc(F)cc3C)cn(C)c(=O)c2[nH]1 [Example 35, N-ethyl-4-[2-(4-fluoro-2,6-dimethylphenoxy)-5-(2-hydroxypropan-2-yl)phenyl]-6-methyl-7-oxo-6,7-dihydro-1H-pyrrolo[2,3-c]pyridine-2-carboxamide] | AUC ([1]; dose 4.7 mg/kg): 0.84 µg·h/mL; % TGI, AML (SKM-1) ([2]; dose 4.7 mg/kg): 74%; AUC at 14 day [3, 7]: 27.5 µg·h/mL; % TGI, Prostate (LNCaP) ([4]; dose 4.7 mg/kg): 64%; AUC ([5]; dose 4.7 mg/kg): 1.1 µg·h/mL
2.2 | 606 | CCNC(=O)c1cc2c(-c3nc(C(C)(C)O)ccc3Oc3c(C)cccc3C)cn(C)c(=O)c2[nH]1 [Example 77, 4-[3-(2,6-dimethylphenoxy)-6-(2-hydroxypropan-2-yl)pyridin-2-yl]-N-ethyl-6-methyl-7-oxo-6,7-dihydro-1H-pyrrolo[2,3-c]pyridine-2-carboxamide] | –
5.4 | 1180 | CCNC(=O)c1cc2c(-c3cc(C(C)(C)O)ccc3Oc3c(C)cccc3C(F)(F)F)cn(C)c(=O)c2[nH]1 [Example 28, N-ethyl-4-{5-(2-hydroxypropan-2-yl)-2-[2-methyl-6-(trifluoromethyl)phenoxy]phenyl}-6-methyl-7-oxo-6,7-dihydro-1H-pyrrolo[2,3-c]pyridine-2-carboxamide] | –
1.7 | 79 | CCNC(=O)c1cc2c(-c3cc(C(O)(C4CCCC4)C4CC4)cnc3Oc3c(C)cccc3C)cn(C)c(=O)c2[nH]1 (centres unmarked) [Example 24, 4-{5-[cyclopentyl(cyclopropyl)hydroxymethyl]-2-(2,6-dimethylphenoxy)pyridin-3-yl}-N-ethyl-6-methyl-7-oxo-6,7-dihydro-1H-pyrrolo[2,3-c]pyridine-2-carboxamide] | –
3.1 | 215 | CCNC(=O)c1cc2c(-c3cc(C4(O)CC=CC4)cnc3Oc3c(C)cccc3C)cn(C)c(=O)c2[nH]1 [Example 4, 4-[2-(2,6-dimethylphenoxy)-5-(1-hydroxycyclopent-3-en-1-yl)pyridin-3-yl]-N-ethyl-6-methyl-7-oxo-6,7-dihydro-1H-pyrrolo[2,3-c]pyridine-2-carboxamide] | –
1.5 | 406 | Cc1cccc(Cl)c1Oc1ncc(C(C)(C)O)cc1-c1cn(C)c(=O)c2[nH]c(C(=O)NC34CC(C3)C4)cc12 [Example 63, N-(bicyclo[1.1.1]pentan-1-yl)-4-[2-(2-chloro-6-methylphenoxy)-5-(2-hydroxypropan-2-yl)pyridin-3-yl]-6-methyl-7-oxo-6,7-dihydro-1H-pyrrolo[2,3-c]pyridine-2-carboxamide] | –
2.1 | 773 | CCNC(=O)c1cc2c(-c3cc(C(C)(C)O)ccc3Oc3c(C)cc(SC)cc3C)cn(C)c(=O)c2[nH]1 [Example 40, 4-{2-[2,6-dimethyl-4-(methylsulfanyl)phenoxy]-5-(2-hydroxypropan-2-yl)phenyl}-N-ethyl-6-methyl-7-oxo-6,7-dihydro-1H-pyrrolo[2,3-c]pyridine-2-carboxamide] | –
2.3 | 359 | CCNC(=O)c1cc2c(-c3cc(C(C)(O)CC)cnc3Oc3c(C)cccc3C)cn(C)c(=O)c2[nH]1 (centres unmarked) [Example 8, 4-[2-(2,6-dimethylphenoxy)-5-(2-hydroxybutan-2-yl)pyridin-3-yl]-N-ethyl-6-methyl-7-oxo-6,7-dihydro-1H-pyrrolo[2,3-c]pyridine-2-carboxamide] | –
5.6 | 115 | Cn1cc(-c2cc(C(C)(C)O)cnc2Oc2c(Cl)cc(F)cc2Cl)c2cc(C(=O)NC(C)(C)C)[nH]c2c1=O [Example 100, N-tert-butyl-4-[2-(2,6-dichloro-4-fluorophenoxy)-5-(2-hydroxypropan-2-yl)pyridin-3-yl]-6-methyl-7-oxo-6,7-dihydro-1H-pyrrolo[2,3-c]pyridine-2-carboxamide] | –
3 | 171 | CCNC(=O)c1cc2c(-c3cc(C(O)(C4CC4)C4CC4)cnc3Oc3c(C)cccc3C)cn(C)c(=O)c2[nH]1 [Example 25, 4-{5-[dicyclopropyl(hydroxy)methyl]-2-(2,6-dimethylphenoxy)pyridin-3-yl}-N-ethyl-6-methyl-7-oxo-6,7-dihydro-1H-pyrrolo[2,3-c]pyridine-2-carboxamide] | –
10.5 | 2500 | CCNC(=O)c1cc2c(-c3cc(C(C)(O)Cc4ccc(F)cc4)cnc3Oc3c(C)cccc3C)cn(C)c(=O)c2[nH]1 (centres unmarked) [Example 22, 4-{2-(2,6-dimethylphenoxy)-5-[1-(4-fluorophenyl)-2-hydroxypropan-2-yl]pyridin-3-yl}-N-ethyl-6-methyl-7-oxo-6,7-dihydro-1H-pyrrolo[2,3-c]pyridine-2-carboxamide] | –
2.3 | 649 | CCNC(=O)c1cc2c(-c3cc(C4(O)CCOCC4)ccc3Oc3c(C)cc(F)cc3C)cn(C)c(=O)c2[nH]1 [Example 129, N-ethyl-4-[2-(4-fluoro-2,6-dimethylphenoxy)-5-(4-hydroxyoxan-4-yl)phenyl]-6-methyl-7-oxo-6,7-dihydro-1H-pyrrolo[2,3-c]pyridine-2-carboxamide] | –
2 | 308 | CCNC(=O)c1cc2c(-c3cc(C4(O)CCC4)ccc3Oc3c(C)cc(F)cc3C)cn(C)c(=O)c2[nH]1 [Example 122, N-ethyl-4-[2-(4-fluoro-2,6-dimethylphenoxy)-5-(1-hydroxycyclobutyl)phenyl]-6-methyl-7-oxo-6,7-dihydro-1H-pyrrolo[2,3-c]pyridine-2-carboxamide] | –
1.8 | 433 | CCNC(=O)c1cc2c(-c3cc(C(C)(C)O)ccc3Oc3c(C)cc(S(C)(=O)=O)cc3C)cn(C)c(=O)c2[nH]1 [Example 85, N-ethyl-4-{5-(2-hydroxypropan-2-yl)-2-[4-(methanesulfonyl)-2,6-dimethylphenoxy]phenyl}-6-methyl-7-oxo-6,7-dihydro-1H-pyrrolo[2,3-c]pyridine-2-carboxamide] | –
1.1 | 404 | CCNC(=O)c1cc2c(-c3cc(C(C)(C)O)ccc3Oc3c(C)cccc3C)cn(C)c(=O)c2[nH]1 [Example 3, 4-[2-(2,6-dimethylphenoxy)-5-(2-hydroxypropan-2-yl)phenyl]-N-ethyl-6-methyl-7-oxo-6,7-dihydro-1H-pyrrolo[2,3-c]pyridine-2-carboxamide] | –
3.3 | 260 | Cc1cccc(Cl)c1Oc1ccc(C(C)(C)O)cc1-c1cn(C)c(=O)c2[nH]c(C(=O)NC(C)(C)C)cc12 [Example 31, N-tert-butyl-4-[2-(2-chloro-6-methylphenoxy)-5-(2-hydroxypropan-2-yl)phenyl]-6-methyl-7-oxo-6,7-dihydro-1H-pyrrolo[2,3-c]pyridine-2-carboxamide] | –

Compound | Ki (BRD4 (BDII_E352-M457)) [nM] | Ki (BRD4 (BDI_K57-E168)) [nM] | further results
Cc1cccc(C)c1Oc1ccc(C(C)(C)O)cc1-c1cn(C)c(=O)c2[nH]c(C(=O)NC(C)(C)C)cc12 [Example 32, N-tert-butyl-4-[2-(2,6-dimethylphenoxy)-5-(2-hydroxypropan-2-yl)phenyl]-6-methyl-7-oxo-6,7-dihydro-1H-pyrrolo[2,3-c]pyridine-2-carboxamide] | 2.8 | 599 | AUC ([1]; dose 9.4 mg/kg): 5 µg·h/mL; % TGI, AML (SKM-1) ([2]; dose 9.4 mg/kg): 76%; AUC ratio (rat maximum tolerated exposure/mouse efficacious exposure) AML (SKM-1) [3, 6]: 14x; AUC ratio (rat maximum tolerated exposure/mouse efficacious exposure) Prostate (LNCaP) [3, 6]: 5.5x; AUC at 14 day [3, 7]: 69.2 µg·h/mL; % TGI, Prostate (LNCaP) ([4]; dose 30 mg/kg): 60%; AUC ([5]; dose 30 mg/kg): 12.6 µg·h/mL
CCS(=O)(=O)Nc1ccc(Oc2ccc(F)cc2F)c(-c2cn(C)c(=O)c3[nH]ccc23)c1 [Compound X, N-[4-(2,4-difluorophenoxy)-3-(6-methyl-7-oxo-6,7-dihydro-1H-pyrrolo[2,3-c]pyridin-4-yl)phenyl]ethanesulfonamide, reference compound] | 0.952 | 2.09 | AUC ([1]; dose 1 mg/kg): 1.2 µg·h/mL; % TGI, AML (SKM-1) ([2]; dose 1 mg/kg): 76%; AUC at 14 day ([3]; Sprague-Dawley, rat, in vivo, 1 mg/kg): 0.725 µg·h/mL; AUC ratio (rat maximum tolerated exposure/mouse efficacious exposure) Prostate (LNCaP) ([3]; exposure margin versus mouse LNCaP xenograft): 0.6x; AUC ratio (rat maximum tolerated exposure/mouse efficacious exposure) AML (SKM-1) ([3]; exposure margin versus mouse SKM-1 xenograft): 0.6x; % TGI, Prostate (LNCaP) ([4]; dose 1 mg/kg): 64%; AUC ([5]; dose 1 mg/kg): 1.2 µg·h/mL
